Counter-ions that a name gives are not always drawn. Like-named read-outs stand apart in the source and are kept apart here.
Key:
Assay type in all cases: cell-based
[1] = target: T1, human dopamine transporter (Homo sapiens, UniProt Q01959); experiment: Inhibitory action on human dopamine transporter ([3H]-dopamine uptake in CHO cells); conditions: compound 1 μM, relative to inhibitory activity of 100 μM Nomifensine as 100%; for inhibition at 1 µM: CHO, read-out: inhibitory rate (%)
T1 construct: expressed in transfected cells
Outline: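 CHO-K1 cells stably expressing human dopamine transporter, exposed to compound at 10 μM or 1 μM in HEPES-buffered saline with 0.5% BSA. [3H]-dopamine uptake measured over 60 min by scintillation counting. Activity expressed relative to 100 μM nomifensine as 100%.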

[2] = target: T2, human norepinephrine transporter (Homo sapiens, UniProt P23975); experiment: Inhibitory action on human norepinephrine transporter ([3H]-norepinephrine uptake in CHO cells); conditions: relative to inhibitory activity of 10 μM DMI as 100%; for inhibition at 1 µM: CHO
T2 construct: expressed in transfected cells
Outline: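 Stably transfected CHO-K1 cells plated overnight, then given test compound and [3H]-norepinephrine (20 nM final, from 200 nM) in HEPES-buffered saline with 0.5% BSA for 45 min. After PBS washes, retained radioactivity counted by scintillation. Inhibition at 10 μM or 1 μM compound expressed relative to 10 μM DMI as 100%.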

[3] = target: T3, human serotonin transporter (Homo sapiens, UniProt P31645); experiment: Inhibitory action on human serotonin transporter ([3H]-5-hydroxytryptamine uptake in CHO cells); conditions: compound 1 μM, relative to inhibitory activity of 10 μM Paroxetine as 100%; for inhibition at 1 µM: CHO, read-out: inhibitory rate (%)
T3 construct: expressed in transfected cells
Outline: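 CHO-K1 cells stably expressing human SERT, plated overnight, took up [3H]-5-HT (diluted to 200 nM before a 1:10 addition) for 20 min in HEPES-buffered saline with glucose and 0.5% BSA; radioactivity counted by scintillation. Compounds at 10 μM or 1 μM, activity expressed relative to 10 μM paroxetine set as 100%.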

[4] = read-out: inhibitory rate (%), compound 1 μM
[5] = compound 1 μM, read-out: inhibitory rate (%)

T1 sequence (Q01959 whole entry): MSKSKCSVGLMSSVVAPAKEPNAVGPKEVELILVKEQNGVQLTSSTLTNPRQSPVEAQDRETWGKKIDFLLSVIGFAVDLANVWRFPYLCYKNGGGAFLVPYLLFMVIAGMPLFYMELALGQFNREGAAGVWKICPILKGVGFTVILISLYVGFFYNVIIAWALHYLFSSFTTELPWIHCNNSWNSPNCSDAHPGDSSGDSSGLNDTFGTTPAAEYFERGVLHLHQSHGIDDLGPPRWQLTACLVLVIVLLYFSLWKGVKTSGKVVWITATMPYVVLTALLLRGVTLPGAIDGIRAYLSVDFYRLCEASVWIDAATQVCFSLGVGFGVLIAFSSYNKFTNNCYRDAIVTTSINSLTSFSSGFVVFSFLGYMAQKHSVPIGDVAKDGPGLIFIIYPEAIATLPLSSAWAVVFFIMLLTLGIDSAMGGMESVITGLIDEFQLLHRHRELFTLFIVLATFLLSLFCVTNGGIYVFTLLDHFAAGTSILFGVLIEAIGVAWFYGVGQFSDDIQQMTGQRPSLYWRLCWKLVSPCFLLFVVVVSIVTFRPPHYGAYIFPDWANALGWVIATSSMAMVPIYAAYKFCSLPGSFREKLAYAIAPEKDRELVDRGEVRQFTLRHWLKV
T2 sequence (P23975 whole entry): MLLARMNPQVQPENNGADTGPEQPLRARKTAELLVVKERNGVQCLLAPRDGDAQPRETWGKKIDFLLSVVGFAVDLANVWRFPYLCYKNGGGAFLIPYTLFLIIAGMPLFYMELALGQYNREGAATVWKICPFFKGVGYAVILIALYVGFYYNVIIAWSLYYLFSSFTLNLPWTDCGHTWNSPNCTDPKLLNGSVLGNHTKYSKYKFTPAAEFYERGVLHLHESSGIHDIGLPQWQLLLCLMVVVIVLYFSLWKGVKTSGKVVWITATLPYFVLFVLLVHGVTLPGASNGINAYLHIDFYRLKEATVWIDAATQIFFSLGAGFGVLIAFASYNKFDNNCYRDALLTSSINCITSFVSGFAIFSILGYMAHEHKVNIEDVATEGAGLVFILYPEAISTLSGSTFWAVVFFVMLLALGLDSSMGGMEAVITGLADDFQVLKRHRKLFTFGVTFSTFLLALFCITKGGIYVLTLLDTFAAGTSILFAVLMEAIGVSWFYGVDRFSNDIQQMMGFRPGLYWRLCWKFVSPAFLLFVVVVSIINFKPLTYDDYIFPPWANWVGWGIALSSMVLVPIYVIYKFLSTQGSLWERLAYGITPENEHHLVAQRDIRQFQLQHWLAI
T3 sequence (P31645 whole entry): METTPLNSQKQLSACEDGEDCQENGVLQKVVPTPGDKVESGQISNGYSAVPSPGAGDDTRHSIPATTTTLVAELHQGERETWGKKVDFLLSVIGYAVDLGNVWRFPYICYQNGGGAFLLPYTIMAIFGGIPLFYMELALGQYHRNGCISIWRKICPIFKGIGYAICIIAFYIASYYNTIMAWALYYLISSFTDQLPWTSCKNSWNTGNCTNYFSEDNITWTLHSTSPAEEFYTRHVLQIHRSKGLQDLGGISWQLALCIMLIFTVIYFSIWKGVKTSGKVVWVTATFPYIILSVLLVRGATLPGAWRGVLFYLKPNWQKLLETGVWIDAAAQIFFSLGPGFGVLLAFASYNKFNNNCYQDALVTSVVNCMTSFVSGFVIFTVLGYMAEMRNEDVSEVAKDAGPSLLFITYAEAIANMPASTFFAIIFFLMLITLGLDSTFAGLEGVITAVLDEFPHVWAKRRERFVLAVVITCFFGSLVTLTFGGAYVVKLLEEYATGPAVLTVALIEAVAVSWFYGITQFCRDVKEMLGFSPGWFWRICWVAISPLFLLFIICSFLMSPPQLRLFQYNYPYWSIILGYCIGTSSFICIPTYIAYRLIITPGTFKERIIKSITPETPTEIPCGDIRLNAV

inhibition at 1 µM [1]	inhibition at 1 µM [3]	inhibition at 1 µM [2, 5]	SMILES	inhibitory rate (%) [1]	inhibitory rate (%) ([2]; compound 1 μM)	inhibitory rate (%) [3]	inhibition at 1 µM [2, 4]
47%	100%	101%	O=C(NC[C@@H]1CNCCO[C@H]1c1ccc(Cl)c(Cl)c1)c1cc(-c2noc(=O)[nH]2)ccn1 [Example 146, N-{[(6S,7R)-7-(3,4-dichlorophenyl)-1,4-oxazepan-6-yl]methyl}-4-(5-oxo-4,5-dihydro-1,2,4-oxadiazol-3-yl)pyridine-2-carboxamide monohydrochloride]	–	–	–	–
99%	99%	101%	CNC(=O)N(CCO)C[C@@H]1CNCCO[C@H]1c1ccc(Cl)c(Cl)c1 [Example 160, 1-{[(6S,7R)-7-(3,4-dichlorophenyl)-1,4-oxazepan-6-yl]methyl}-1-(2-hydroxyethyl)-3-methylurea monohydrochloride]	–	–	–	–
88%	93%	103%	O=c1nc(-c2ccccc2S(=O)(=O)C[C@@H]2CNCCO[C@H]2c2ccc(Cl)c(Cl)c2)[nH]o1 [Example 167, 3-[2-({[(6R,7R)-7-(3,4-dichlorophenyl)-1,4-oxazepan-6-yl]methyl}sulfonyl)phenyl]-1,2,4-oxadiazol-5(2H)-one monohydrochloride]	–	–	–	–
20%	80%	101%	O=C(O)c1cccnc1NC[C@@H]1CNCCO[C@H]1c1ccc(Cl)c(Cl)c1 [Example 176, 2-({[(6S,7R)-7-(3,4-dichlorophenyl)-1,4-oxazepan-6-yl]methyl}amino)pyridine-3-carboxylic acid monohydrochloride]	–	–	–	–
39%	87%	100%	O=C(O)c1ccnn1C[C@@H]1CNCCO[C@H]1c1ccc(Cl)c(Cl)c1 [Example 181, 1-{[(6S,7R)-7-(3,4-dichlorophenyl)-1,4-oxazepan-6-yl]methyl}-1H-pyraole-5-carboxylic acid monohydrochloride]	–	–	–	–
53%	86%	101%	Cc1cc(C(=O)O)nn1C[C@@H]1CNCCO[C@H]1c1ccc(Cl)c(Cl)c1 [Example 187, 1-{[(6S,7R)-7-(3,4-dichlorophenyl)-1,4-oxazepan-6-yl]methyl}-5-methyl-1H-pyrazole-3-carboxylic acid monohydrochloride]	–	–	–	–
66%	100%	99%	O=c1[nH]c(-c2csc(C[C@@H]3CNCCO[C@H]3c3ccc(Cl)c(Cl)c3)n2)no1 [Example 199, 3-(2-{[(6R,7R)-7-(3,4-dichlorophenyl)-1,4-oxazepan-6-yl]methyl}-1,3-thiazol-4-yl)-1,2,4-oxadiazol-5(4H)-one monohydrochloride]	–	–	–	–
94%	98%	103%	OCCC[C@@H]1CNCCO[C@H]1c1ccc(Cl)c(Cl)c1 [Example 212, 3-[(6R,7R)-7-(3,4-dichlorophenyl)-1,4-oxazepan-6-yl]propan-1-ol monohydrochloride]	–	–	–	–
3%	42%	94%	CC(=O)[C@@H]1CNCCO[C@H]1c1ccc(Cl)c(Cl)c1 [Example 216, 1-[(6R,7R)-7-(3,4-dichlorophenyl)-1,4-oxazepan-6-yl]ethanone monohydrochloride]	–	–	–	–
60%	94%	105%	CC(=O)N[C@H]1CNCCO[C@@H]1c1ccc(Cl)c(Cl)c1 [Example 240, N-[(6S,7R)-7-(3,4-dichlorophenyl)-1,4-oxazepan-6-yl]acetamide monohydrochloride]	–	–	–	–
52%	71%	98%	NC(=O)N[C@@H]1CNCCO[C@H]1c1ccc(Cl)c(Cl)c1 [Example 262, 1-[(6R,7S)-7-(3,4-dichlorophenyl)-1,4-oxazepan-6-yl]urea monohydrochloride]	–	–	–	–
72%	79%	102%	CS(=O)(=O)N[C@@H]1CNCCO[C@H]1c1ccc(Cl)c(Cl)c1 [Example 265, N-[(6R,7S)-7-(3,4-dichlorophenyl)-1,4-oxazepan-6-yl]methanesulfonamide monohydrochloride]	–	–	–	–

The remaining lines, values behind:

SMILES	inhibition at 1 µM [1]	inhibition at 1 µM [3]	inhibition at 1 µM [2, 5]	inhibitory rate (%) [1]	inhibitory rate (%) ([2]; compound 1 μM)	inhibitory rate (%) [3]	inhibition at 1 µM [2, 4]
OCC1CNCCOC1c1ccc(Cl)c(Cl)c1 (stereo not drawn) [Example 49, [(6R*,7R*)-7-(3,4-dichlorophenyl)-1,4-oxazepan-6-yl]methanol monohydrochloride (retention time long)]	–	–	–	41%	98%	87%	–
OC[C@@H]1CNCCO[C@H]1c1ccc(Cl)c(Cl)c1 [Example 72, [(6S,7R)-7-(3,4-dichlorophenyl)-1,4-oxazepan-6-yl]methanol monohydrochloride]	41%	90%	–	–	–	–	95%
OC[C@H]1CNCCO[C@@H]1c1ccc(Cl)c(Cl)c1 [Example 73, [(6R,7S)-7-(3,4-dichlorophenyl)-1,4-oxazepan-6-yl]methanol monohydrochloride]	64%	97%	–	–	–	–	98%
O=c1[nH]c(-c2ccc(OC[C@@H]3CNCCO[C@H]3c3ccc(Cl)c(Cl)c3)nc2)no1 [Example 87, 3-(6-{[(6S,7R)-7-(3,4-dichlorophenyl)-1,4-oxazepan-6-yl]methoxy}pyridin-3-yl)-1,2,4-oxadiazol-5(4H)-one monohydrochloride]	20%	96%	108%	–	–	–	–
CS(=O)(=O)C[C@@H]1CNCCO[C@H]1c1ccc(Cl)c(Cl)c1 [Example 92, (6R,7R)-7-(3,4-dichlorophenyl)-6-[(methylsulfonyl)methyl]-1,4-oxazepane monohydrochloride]	86%	97%	96%	–	–	–	–
CS(=O)(=O)C[C@H]1CNCCO[C@@H]1c1ccc(Cl)c(Cl)c1 [Example 93, (6S,7S)-7-(3,4-dichlorophenyl)-6-[(methylsulfonyl)methyl]-1,4-oxazepane monohydrochloride]	96%	97%	96%	–	–	–	–
CC(=O)N(C)C[C@@H]1CNCCO[C@H]1c1ccc(Cl)c(Cl)c1 [Example 99, N-{[(6S,7R)-7-(3,4-dichlorophenyl)-1,4-oxazepan-6-yl]methyl}-N-methylacetamide monohydrochloride]	94%	99%	98%	–	–	–	–
CS(=O)(=O)CC(=O)NC[C@@H]1CNCCO[C@H]1c1ccc(Cl)c(Cl)c1 [Example 114, N-{[(6S,7R)-7-(3,4-dichlorophenyl)-1,4-oxazepan-6-yl]methyl}-2-(methylsulfonyl)acetamide monohydrochloride]	59%	94%	99%	–	–	–	–
CS(=O)(=O)CC(=O)NC[C@H]1CNCCO[C@@H]1c1ccc(Cl)c(Cl)c1 [Example 115, N-{[(6R,7S)-7-(3,4-dichlorophenyl)-1,4-oxazepan-6-yl]methyl}-2-(methylsulfonyl)acetamide monohydrochloride]	66%	99%	98%	–	–	–	–
O=C(NC[C@@H]1CNCCO[C@H]1c1ccc(Cl)c(Cl)c1)c1ccccc1 [Example 126, N-{[(6S,7R)-7-(3,4-dichlorophenyl)-1,4-oxazepan-6-yl]methyl}benzamide monohydrochloride]	27%	97%	103%	–	–	–	–
O=C(NC[C@@H]1CNCCO[C@H]1c1ccc(Cl)c(Cl)c1)c1cccc(-c2noc(=O)[nH]2)c1 [Example 142, N-{[(6S,7R)-7-(3,4-dichlorophenyl)-1,4-oxazepan-6-yl]methyl}-3-(5-oxo-4,5-dihydro-1,2,4-oxadiazol-3-yl)benzamide monohydrochloride]	4%	95%	100%	–	–	–	–
NC(=O)NC[C@@H]1CNCCO[C@H]1c1ccc(Cl)c(Cl)c1 [Example 152, 1-{[(6S,7R)-7-(3,4-dichlorophenyl)-1,4-oxazepan-6-yl]methyl}urea monofumarate]	59%	89%	–	–	–	–	95%
NC(=O)NC[C@H]1CNCCO[C@@H]1c1ccc(Cl)c(Cl)c1 [Example 153, 1-{[(6R,7S)-7-(3,4-dichlorophenyl)-1,4-oxazepan-6-yl]methyl}urea monofumarate]	49%	93%	–	–	–	–	95%
O=c1[nH]c(-c2ccnn(C[C@@H]3CNCCO[C@H]3c3ccc(Cl)c(Cl)c3)c2=O)no1 [Example 209, 2-{[(6S,7R)-7-(3,4-dichlorophenyl)-1,4-oxazepan-6-yl]methyl}-4-(5-oxo-4,5-dihydro-1,2,4-oxadiazol-3-yl)pyridazin-3(2H)-one monohydrochloride]	71%	97%	–	–	–	–	101%
